Source: patent US20050009840A1 (SUGEN, INC., priority 2003, published 2005)

molecular target: T1, HGFR (Homo sapiens, UniProt P08581); assay: HGFR continuous-coupled spectrophotometric assay; type: biochemical; conditions: at 1 pM; Table 7, library procedure 42; read-out: % Inhibition (percent c-MET inhibition)
T1 construct: purchased Upstate 14-526
T1 sequence (P08581 974-1390 limits assumed): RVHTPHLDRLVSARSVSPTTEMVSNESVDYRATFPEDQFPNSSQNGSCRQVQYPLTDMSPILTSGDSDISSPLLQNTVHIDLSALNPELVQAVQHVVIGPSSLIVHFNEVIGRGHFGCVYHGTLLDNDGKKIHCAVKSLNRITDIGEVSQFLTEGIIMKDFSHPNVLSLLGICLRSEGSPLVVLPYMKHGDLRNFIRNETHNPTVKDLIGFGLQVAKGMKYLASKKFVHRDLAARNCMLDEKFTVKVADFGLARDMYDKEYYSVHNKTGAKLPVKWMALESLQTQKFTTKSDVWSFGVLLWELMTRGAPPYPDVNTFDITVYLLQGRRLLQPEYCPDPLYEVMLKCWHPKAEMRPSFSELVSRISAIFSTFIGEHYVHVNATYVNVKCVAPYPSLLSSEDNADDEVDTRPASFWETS

SMILES | inhibition at 1 pM
Cc1noc(C)c1COc1cc(-c2ccc(C(=O)N3CCC(N4CCCC4)CC3)cc2)cnc1N | 10%
Nc1ncc(-c2ccc(C(=O)N3CCC(N4CCCC4)CC3)cc2)cc1OCc1ccc(Cl)s1 | 19%
Nc1ncc(-c2ccc(C(=O)N3CCC(N4CCCC4)CC3)cc2)cc1OCc1ccc(OCc2ccccc2)cc1 | 49%
Nc1ncc(-c2ccc(C(=O)N3CCC(N4CCCC4)CC3)cc2)cc1OCc1nsc(Cl)n1 | 5%
Nc1ncc(-c2ccc(C(=O)N3CCC(N4CCCC4)CC3)cc2)cc1OCC1=C(Cl)SNN1 | 19%
Cn1nc(-c2ccccc2)nc1COc1cc(-c2ccc(C(=O)N3CCC(N4CCCC4)CC3)cc2)cnc1N | 5%
Cc1ccnc2nc(COc3cc(-c4ccc(C(=O)N5CCC(N6CCCC6)CC5)cc4)cnc3N)cn12 | 10%
Nc1ncc(-c2ccc(C(=O)N3CCC(N4CCCC4)CC3)cc2)cc1OCc1ncccn1 | 9%
CCc1ccn2cc(COc3cc(-c4ccc(C(=O)N5CCC(N6CCCC6)CC5)cc4)cnc3N)nc2c1 | 9%
N#Cc1ccc(COc2cc(-c3ccc(C(=O)N4CCC(N5CCCC5)CC4)cc3)cnc2N)cc1 | 8%
Nc1ncc(-c2ccc(C(=O)N3CCC(N4CCCC4)CC3)cc2)cc1OCc1ccc(F)cc1F | 18%
CC(C)Cc1noc(COc2cc(-c3ccc(C(=O)N4CCC(N5CCCC5)CC4)cc3)cnc2N)n1 | 12%
Nc1ncc(-c2ccc(C(=O)N3CCC(N4CCCC4)CC3)cc2)cc1OCc1nc(-c2ccccc2)n[nH]1 | -2%
Cc1cnccc1COc1cc(-c2ccc(C(=O)N3CCC(N4CCCC4)CC3)cc2)cnc1N | 11%
Nc1ncc(-c2ccc(C(=O)N3CCC(N4CCCC4)CC3)cc2)cc1OCc1nc(NCCO)c2ccccc2n1 | 7%
CCOC(=O)c1nc(COc2cc(-c3ccc(C(=O)N4CCC(N5CCCC5)CC4)cc3)cnc2N)no1 | 8%
CC(C)NC(=O)c1ccc(-c2noc(COc3cc(-c4ccc(C(=O)N5CCC(N6CCCC6)CC5)cc4)cnc3N)n2)cc1 | 18%

The remaining lines, values ahead:

inhibition at 1 pM | SMILES
10% | Nc1ncc(-c2ccc(C(=O)N3CCC(N4CCCC4)CC3)cc2)cc1OCc1ccncc1
19% | COc1ccc(OC)c(COc2cc(-c3ccc(C(=O)N4CCC(N5CCCC5)CC4)cc3)cnc2N)c1
5% | Cn1nc(C2CC2)nc1COc1cc(-c2ccc(C(=O)N3CCC(N4CCCC4)CC3)cc2)cnc1N
9% | Nc1nc(COc2cc(-c3ccc(C(=O)N4CCC(N5CCCC5)CC4)cc3)cnc2N)nc(Nc2ccccc2)n1
8% | Nc1ncc(-c2ccc(C(=O)N3CCC(N4CCCC4)CC3)cc2)cc1OCc1nccn1Cc1ccccc1
27% | Nc1ncc(-c2ccc(C(=O)N3CCC(N4CCCC4)CC3)cc2)cc1OCc1ccc2ccccc2c1
12% | N#Cc1cccc(COc2cc(-c3ccc(C(=O)N4CCC(N5CCCC5)CC4)cc3)cnc2N)c1
4% | Nc1ncc(-c2ccc(C(=O)N3CCC(N4CCCC4)CC3)cc2)cc1OCc1nc2ccccc2[nH]1
16% | Nc1ncc(-c2ccc(C(=O)N3CCC(N4CCCC4)CC3)cc2)cc1OCc1noc(-c2ccccc2)n1
28% | Nc1ncc(-c2ccc(C(=O)N3CCC(N4CCCC4)CC3)cc2)cc1OCc1ccc(Cl)cc1Br
5% | CCc1nc(COc2cc(-c3ccc(C(=O)N4CCC(N5CCCC5)CC4)cc3)cnc2N)no1
6% | Nc1ncc(-c2ccc(C(=O)N3CCC(N4CCCC4)CC3)cc2)cc1OCc1nc(NC2CC2)c2ccccc2n1
11% | CNC(=O)c1ccc(OC)c(-c2noc(COc3cc(-c4ccc(C(=O)N5CCC(N6CCCC6)CC5)cc4)cnc3N)n2)c1
11% | Nc1ncc(-c2ccc(C(=O)N3CCC(N4CCCC4)CC3)cc2)cc1OCc1nc(-c2ccc(C(=O)N3CCCC3)cc2)no1
64% | Nc1ncc(-c2ccc(C(=O)N3CCC(N4CCCC4)CC3)cc2)cc1OCc1nc(-c2cccc(C(=O)Nc3ccc(F)cc3)c2)no1

same assay, conditions: at 1 μM; Table 8, library procedure 43; read-out: % Inhibition (percent c-MET inhibition)

SMILES | inhibition at 1 µM
CC1CN(C(=O)c2ccc(-c3cnc(N)c(OCc4ccc(F)cc4F)c3)cc2)CC(C)N1 (centres unmarked) | 20%
CC1CN(C(=O)c2ccc(-c3cnc(N)c(OCc4cc(F)ccc4F)c3)cc2)CC(C)N1 (centres unmarked) | 25%
CC1CN(C(=O)c2ccc(-c3cnc(N)c(OCc4cccc(Cl)c4Cl)c3)cc2)CC(C)N1 (centres unmarked) | 40%
CC1CN(C(=O)c2ccc(-c3cnc(N)c(OCc4cccc(C(=O)Nc5ccc(N6CCCCC6)cc5)c4)c3)cc2)CC(C)N1 (centres unmarked) | 28%
CC1CN(C(=O)c2ccc(-c3cnc(N)c(OCc4cc(C(F)(F)F)ccc4Cl)c3)cc2)CC(C)N1 (centres unmarked) | 25%
CC1CN(C(=O)c2ccc(-c3cnc(N)c(OCc4ccccc4OC(F)(F)F)c3)cc2)CC(C)N1 (centres unmarked) | 20%
CC1CN(C(=O)c2ccc(-c3cnc(N)c(OCc4ccc(S(=O)(=O)Nc5ccc(F)cc5)cc4)c3)cc2)CC(C)N1 (centres unmarked) | 14%
CC1CN(C(=O)c2ccc(-c3cnc(N)c(OCc4ccc(-c5ccnc(Br)n5)cc4)c3)cc2)CC(C)N1 (centres unmarked) | 17%
CC1CN(C(=O)c2ccc(-c3cnc(N)c(OCc4cccc(-c5ccnc(Br)n5)c4)c3)cc2)CC(C)N1 (centres unmarked) | 19%
CC1CN(C(=O)c2ccc(-c3cnc(N)c(OCc4ccc(S(N)(=O)=O)cc4)c3)cc2)CC(C)N1 (centres unmarked) | 16%
CC1CN(C(=O)c2ccc(-c3cnc(N)c(OCc4ccc(C(=O)c5ccccc5)cc4)c3)cc2)CC(C)N1 (centres unmarked) | 35%
CC1CN(C(=O)c2ccc(-c3cnc(N)c(OCc4ccc(S(=O)(=O)N5CCOCC5)cc4)c3)cc2)CC(C)N1 (centres unmarked) | 13%
CC1CN(C(=O)c2ccc(-c3cnc(N)c(OCc4nc(-c5ccccn5)no4)c3)cc2)CC(C)N1 (centres unmarked) | 15%
Cc1ccc(COc2cc(-c3ccc(C(=O)N4CC(C)NC(C)C4)cc3)cnc2N)c(F)c1F (centres unmarked) | 37%
Cc1cc(COc2cc(-c3ccc(C(=O)N4CC(C)NC(C)C4)cc3)cnc2N)ccc1F (centres unmarked) | 16%
Cc1ccc(F)cc1COc1cc(-c2ccc(C(=O)N3CC(C)NC(C)C3)cc2)cnc1N (centres unmarked) | 28%
CC1CN(C(=O)c2ccc(-c3cnc(N)c(OCc4c(-c5ccccc5)nn(C)c4Cl)c3)cc2)CC(C)N1 (centres unmarked) | 18%
Cc1nc(COc2cc(-c3ccc(C(=O)N4CC(C)NC(C)C4)cc3)cnc2N)n(C)n1 (centres unmarked) | 13%
CC1CN(C(=O)c2ccc(-c3cnc(N)c(OCc4nnnn4Cc4ccccc4)c3)cc2)CC(C)N1 (centres unmarked) | 15%
CC1CN(C(=O)c2ccc(-c3cnc(N)c(OCc4nc5ccc(Cl)cc5[nH]4)c3)cc2)CC(C)N1 (centres unmarked) | 10%
CC1CN(C(=O)c2ccc(-c3cnc(N)c(OCc4cc5c(C(F)(F)F)nn(C)c5s4)c3)cc2)CC(C)N1 (centres unmarked) | 13%
CCOC(=O)c1nc(COc2cc(-c3ccc(C(=O)N4CC(C)NC(C)C4)cc3)cnc2N)no1 (centres unmarked) | 13%

Results, then the molecule that gave them:

inhibition at 1 µM | SMILES
14% | CC1CN(C(=O)c2ccc(-c3cnc(N)c(OCc4ccc(F)c(F)c4)c3)cc2)CC(C)N1 (centres unmarked)
21% | CC1CN(C(=O)c2ccc(-c3cnc(N)c(OCc4ccc(OC(F)(F)F)cc4)c3)cc2)CC(C)N1 (centres unmarked)
12% | CC1CN(C(=O)c2ccc(-c3cnc(N)c(OCc4cc(F)cc(F)c4)c3)cc2)CC(C)N1 (centres unmarked)
27% | Cc1ccc(COc2cc(-c3ccc(C(=O)N4CC(C)NC(C)C4)cc3)cnc2N)cc1Cl (centres unmarked)
8% | CC1CN(C(=O)c2ccc(-c3cnc(N)c(OCc4ccc(C(=O)NCc5cccnc5)cc4)c3)cc2)CC(C)N1 (centres unmarked)
19% | CC1CN(C(=O)c2ccc(-c3cnc(N)c(OCc4ccc(C(=O)NC5CCN(Cc6ccccc6)C5)cc4)c3)cc2)CC(C)N1 (centres unmarked)
17% | CC1CN(C(=O)c2ccc(-c3cnc(N)c(OCc4ccc5nc(C(F)(F)F)cc(OC(C)C)c5c4)c3)cc2)CC(C)N1 (centres unmarked)
58% | CC1CN(C(=O)c2ccc(-c3cnc(N)c(OCc4ccc5ccccc5c4Br)c3)cc2)CC(C)N1 (centres unmarked)
17% | CC1CN(C(=O)c2ccc(-c3cnc(N)c(OCc4ccc(C(F)(F)F)c(F)c4)c3)cc2)CC(C)N1 (centres unmarked)
17% | CC1CN(C(=O)c2ccc(-c3cnc(N)c(OCc4cc(F)ccc4C(F)(F)F)c3)cc2)CC(C)N1 (centres unmarked)
12% | CCOC(=O)C1CCN(C(=O)c2ccc(COc3cc(-c4ccc(C(=O)N5CC(C)NC(C)C5)cc4)cnc3N)cc2)CC1 (centres unmarked)
14% | CCOC(=O)CCNC(=O)c1cccc(COc2cc(-c3ccc(C(=O)N4CC(C)NC(C)C4)cc3)cnc2N)c1 (centres unmarked)
25% | Cc1cc(-c2onc(C)c2COc2cc(-c3ccc(C(=O)N4CC(C)NC(C)C4)cc3)cnc2N)no1 (centres unmarked)
13% | CC1CN(C(=O)c2ccc(-c3cnc(N)c(OCc4ccc(S(=O)(=O)c5ccc(F)cc5)cc4)c3)cc2)CC(C)N1 (centres unmarked)
16% | CC1CN(C(=O)c2ccc(-c3cnc(N)c(OCc4nc5ccccc5n4C)c3)cc2)CC(C)N1 (centres unmarked)
51% | CC1CN(C(=O)c2ccc(-c3cnc(N)c(OCc4c(F)ccc(F)c4Cl)c3)cc2)CC(C)N1 (centres unmarked)
35% | Cc1ccc(F)c(COc2cc(-c3ccc(C(=O)N4CC(C)NC(C)C4)cc3)cnc2N)c1F (centres unmarked)
21% | CC1CN(C(=O)c2ccc(-c3cnc(N)c(OCc4cccc(Br)c4)c3)cc2)CC(C)N1 (centres unmarked)
16% | Cc1onc(-c2ccccc2)c1COc1cc(-c2ccc(C(=O)N3CC(C)NC(C)C3)cc2)cnc1N (centres unmarked)
17% | CC1CN(C(=O)c2ccc(-c3cnc(N)c(OCc4cccc5cccnc45)c3)cc2)CC(C)N1 (centres unmarked)
14% | Cc1ccc(-c2nnc(COc3cc(-c4ccc(C(=O)N5CC(C)NC(C)C5)cc4)cnc3N)o2)cc1 (centres unmarked)
16% | CC1CN(C(=O)c2ccc(-c3cnc(N)c(OCc4cc(-c5ccccc5)no4)c3)cc2)CC(C)N1 (centres unmarked)
12% | CC1CN(C(=O)c2ccc(-c3cnc(N)c(OCc4nccn4C)c3)cc2)CC(C)N1 (centres unmarked)
13% | CC1CN(C(=O)c2ccc(-c3cnc(N)c(OCc4nc(-c5ccccc5)nn4C)c3)cc2)CC(C)N1 (centres unmarked)
14% | CC(C)Cc1noc(COc2cc(-c3ccc(C(=O)N4CC(C)NC(C)C4)cc3)cnc2N)n1 (centres unmarked)
29% | CC1CN(C(=O)c2ccc(-c3cnc(N)c(OCc4ccc(Cl)cc4Br)c3)cc2)CC(C)N1 (centres unmarked)
